Test results: patent US20240239788A1, “SMALL MOLECULE INHIBITORS OF KRAS G12D MUTANT” (Merck Sharp & Dohme LLC, priority 2021, published 2024)
Structures can show the parent of a compound that is named as a salt. Where two headings read alike, the source gives them in different places.

Tests used:
[1] = biological target: KRAS protein containing G12D mutation (Homo sapiens (Human), UniProt P01116, G12D); assay: SOS-catalyzed nucleotide exchange assay (GNE), TR-FRET; assay type: biochemical; conditions: biotinylated KRAS G12D, SOS and GTP, 60-minute incubation
Chain of KRAS protein containing G12D mutation (P01116 other isoform, or with tags, fused parts or gaps G12D (already in the parent)): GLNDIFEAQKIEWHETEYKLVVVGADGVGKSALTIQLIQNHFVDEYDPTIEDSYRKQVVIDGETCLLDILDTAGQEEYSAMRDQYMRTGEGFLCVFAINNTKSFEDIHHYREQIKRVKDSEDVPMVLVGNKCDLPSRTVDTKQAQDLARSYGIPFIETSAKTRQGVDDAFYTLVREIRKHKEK
Protocol: Compounds are added to this complex and then after a 60-minute incubation time the mixture is treated with SOS and unlabeled GTP. Small molecule inhibitors stabilize the Bodipy-GDP complex whereas the untreated protein rapidly exchanges Bodipy-GDP for unlabeled GTP resulting in reduced TR-FRET signal.
This solution is referred to as biotinylated KRAS G12D stock solution.

[2] = tested on: AsPC-1 cells containing homozygous KRAS-G12D activating mutation; assay: Cellular phospho-ERK assay with 10% FBS (Examples 107a-256); assay type: cell-based
Protocol: 5% CO2 for 2 hours. […] Assay plates were read on a EnVision Multimode Plate Reader (PerkinElmer) and the ratio of p-Erk vs total Erk in each well was used as the final readout.

[3] = Homo sapiens, ASPC1, 2 h, read-out: IC50 (nM) pERK (cell with FBS 10%), AsPC-1 cells, 10% fetal bovine serum, 2 hours, ratio of p-Erk vs total Erk

IC50 ([2]; read-out: IC50 (nM) pERK (cell with FBS 10%), AsPC-1 cells, 10% fetal bovine serum, 2 hours, ratio of p-Erk vs total Erk) [nM]	SMILES	IC50 [1] [nM]	IC50 [2, 3] [nM]
–	CN(C)CC1(COc2nc(N3C[C@H]4CC[C@@](C)(C3)N4)c3cc(F)c(-c4cc(O)cc5ccccc45)c(F)c3n2)CC1 [Example 115, 4-(2-((1-((dimethylamino)methyl)cyclopropyl)methoxy)-6,8-difluoro-4-((1S,5R)-1-methyl-3,8-diazabicyclo [3.2.1]octan-3-yl)quinazolin-7-yl) naphthalen-2-ol]	10.5	1470
–	CN1CCC[C@H]1COc1nc(N2CC3CC[C@@](C)(C2)N3)c2cc(F)c(-c3cc(O)cc4ccccc34)c(F)c2n1 [Example 118, 4-(6,8-difluoro-4-((1S,5R)-1-methyl-3,8-diazabicyclo [3.2.1]octan-3-yl)-2-(((S)-1-ethylpyrrolidin-2-yl)methoxy)quinazolin-7-l)naphthalen-2-ol]	82.6	1810
–	C[C@]12CC[C@H](CN(c3nc(OC[C@H]4CCNC4)nc4c(F)c(-c5cc(O)cc6ccccc56)c(Cl)cc34)C1)N2 [Example 119, 4-(6-chloro-8-fluoro-4-((1S,5R)-1-methyl-3,8-diazabicyclo[3.2.1]octan-3-yl)-2-(((S)-pyrrolidin-3-yl)methoxy)quinazolin-7-yl)naphthalen-2-ol, TFA]	1440	30000
–	C[C@]12CC[C@H](CN(c3nc(OC[C@@H]4CCN(C5CCCCC5O)C4)nc4c(F)c(-c5cc(O)cc6ccccc56)c(Cl)cc34)C1)N2 (stereo partly drawn) [Example 121, 4-(6-chloro-8-fluoro-2-(((3R)-1-(2-hydroxycyclohexyl)pyrrolidin-3-yl)methoxy)-4-((1S,5R)-1-methyl-3,8-diazabicyclo[3.2.1]octan-3-yl)quinazolin-7-yl)naphthalen-2-ol, TFA]	615	11400
–	C[C@]12CC[C@H](CN(c3nc(OC[C@@H]4CCNC4)nc4c(F)c(-c5cc(O)cc6ccccc56)c(Cl)cc34)C1)N2 [Example 122, 4-(6-chloro-8-fluoro-4-((1S,5R)-1-methyl-3,8-diazabicyclo[3.2.1]octan-3-yl)-2-(((R)-pyrrolidin-3-yl)methoxy)quinazolin-7-yl)naphthalen-2-ol, TFA]	964	30000
–	C[C@@]12CC[C@H](CN(c3nc(OC[C@@]45CCCN4C[C@H](F)C5)nc4c(F)c(-c5cccc6ccc(F)c(F)c56)c(F)cc34)C1)N2 [compound 197, 7-(7,8-difluoronaph-thalen-1-yl)-6,8-difluoro-2-(((2R,7aS)-2-fluorotetrahydro-1H-pyrrolizin-7a(5H)-yl)-methoxy)-4-((1S,5R)-1-methyl-3,8-diaza-bicyclo[3.2.1]octan-3-yl)quinazoline]	52.4	4470
–	COCCNC[C@@]1(COc2nc(N3C[C@H]4CC[C@@](C)(C3)N4)c3cc(F)c(-c4c(C(F)(F)F)c(C)cc5[nH]ncc45)c(F)c3n2)CC1(F)F [compound 205, (1S,5R)-3-(2-(((R)-2,2-difluoro-1-(((2-methoxyethyl)amino)methyl)cyclopropyl)methoxy)-6,8-difluoro-7-(6-methyl-5-(trifluoromethyl)-1H-indazol-4-yl)quinazolin-4-yl)-1-methyl-3,8-diazabicyclo[3.2.1]octan-8-ium 2,2,2-trifluoroacetate]	93.9	9380
1740	CCc1cnn2cc(O)cc(-c3c(F)cc4c(N5C[C@H]6CC[C@@](C)(C5)N6)nc(OC[C@@]56CCCN5C[C@H](F)C6)nc4c3F)c12 [compound 229, 4-(6,8-difluoro-2-(((2R,7aS)-2-fluorotetrahydro-1H-pyrrolizin-7a(5H)-yl)methoxy)-4-((1S,5R)-1-methyl-3,8-diazabicyclo[3.2.1]octan-3-yl)quinazolin-7-yl)-3-ethylpyrazolo[1.5-a]pyridin-6-ol]	98.5	–
–	C#Cc1cccc2nc(N)nc(-c3c(F)cc4c(N5C[C@H]6CC[C@@H](C5)N6)nc(OC[C@@]56CCCN5C[C@H](F)C6)nc4c3F)c12 [compound 235, 4′-((1R,5S)-3,8-diazabicyclo[3.2.1]octan-3-yl)-5-ethynyl-6′,8′-difluoro-2′-(((2R,7aS)-2-fluorotetrahydro-1H-pyrrolizin-7a(5H)-yl)methoxy)-[4,7′-biquinazolin]-2-amine]	91.7	910
